Entries after “also recorded” stand apart in the source; their conditions may differ. Like-named read-outs stand apart in the source and are kept apart here.
Legend:
[1] = test system: 4NQO-induced tumor organoids (Aldh2*2 vs Aldh2*1); test: CellTiter-Glo 3D cell viability assay of 4NQO-induced tumor organoids with Aldh2 SNP genotypes; type: cell-based, mice; settings: for Response of Aldh2*2 (Aldh2 mutant) tumor organoids to chemotherapy agent compared with Aldh2*1 (wild-type) tumor organoids: treatment for 3 days, cisplatin 80 μM, 5FU data not shown
Protocol: 4NQO-induced tumor organoids with indicated Aldh2 SNP genotypes were analyzed by H&E staining for cellular abnormality in FIG. 5A and by […] CellTiter-Glo® 3D cell viability assays, following treatment for 3 days with cisplatin (80 μM) along with or without 10 μM Alda-1, an Aldh2 activator in FIG. 5B. *, p<0.01 vs. Aldh21; ns, not significant (n=6).
Aldh2*2 is a common single nucleotide polymorphism (SNP) strongly associated with OSCC. To evaluate the role of Aldh2*2 in 4NQO-induced neoplastic cells in 3D organoids, Aldh2*2 mice expressing mutant Aldh2 protein (Aldh2^E487K) were compared with wild-type Aldh2*1 (control) mice. 3D organoids were analyzed from tumors detected in mice sacrificed at 26 weeks from the start of 4NQO treatment. […] Thus, individuals with Aldh2*2 SNP may respond to chemotherapy better despite its strong association with a risk of OSCC tumor development. It was hypothesized that pharmacological Aldh2 inhibition by Disulfiram (Antabuse, used a treatment of chronic alcoholism) augments the chemotherapy effects in OSCC in individuals with Aldh2*1. Thus, patient-derived 3D organoids may serve as a platform for new translational applications in personalized medicine for therapy of OSCC and potentially other squamous cell carcinomas.
Oral 3D organoids (FIG. 6): 3D organoids will be generated according to the published protocols (Kasagi et al. 2018; Natsuizaka et al. 2017; Whelan et al. 2017). In 24-well plates, 2,000 cells are seeded in Matrigel (50 μl/well). Organoids grow within 7-10 days to form 50-100 μm spherical structures (100% success, n=34 for human normal biopsies) (Kasagi et al. 2018). For quality control purposes, an OSCC cell line will be used (Kijima et al. 2019). Time-lapse analysis of growing organoids will be done under light microscopy to determine their average size and morphology. organoid formation rate (OFR; the percentage of the number of organoids formed at day 10 per total number of cells seeded at day 0) will be determined. Organoids will then be processed for DNA, RNA and flow cytometry, and histology. […]

EAC PDO = test: IC50 from drug-treated EAC PDO, mean organoid size by Celigo Imaging Cytometer; type: cell-based, human; settings: 72 h-exposure, R squares 0.5874 (Cisplatin) and 0.8652 (Paclitaxel), read-out: IC50 (organoid size normalized by vehicle-treated control as 100%)
Protocol: EAC PDO size were evaluated by Celigo Imaging Cytometer measuring the mean organoid size following 72 h-exposure to Cisplatin and Paclitaxel at indicated final concentrations. Organoid size was normalized by vehicle-treated control as 100%.
To evaluate organoid growth, 3D organoid structures were monitored during culture, and their size is documented by a conventional phase-contrast inverted microscope or highthroughput cell imaging instruments (e.g., Celigo Image Cytometer, Nexcelom Bioscience) with the capacity of automated multi-well rapid imaging and quantitative analysis of organoid size, number and structure.
• 1. Grow organoids in 24-well or 96-well plates (Basic Protocols 1 and 2). Use at least three (3) wells per condition as biological replicates. • 2. Acquire phase-contrast images (FIGS. 37A-37B) manually via a conventional microscopy with a camera. Use ImageJ software to measure the diameter of at least 5 organoids per well. Alternatively, Celigo imaging cytometer can not only acquire phase-contrast images but calculate mean organoid area for all organoids imaged. Such assays can be performed in conjunction with drug treatment (FIG. 38) (Basic Protocol 6). • 3. Repeat step 2 every other day. • 4. Generate growth curves by plotting organoid diameter or area at each time point.
• 1. Remove the spent culture medium by aspiration. • 2. […]

esophageal 3D organoids = test: Modeling reactive epithelium in esophageal organoids with IL-13; type: cell-based, human; settings: IL-13 stimulation (10 ng/ml in protocol), compared to untreated organoids
Excerpt: Reactive changes in esophageal epithelium are induced by multiple soluble factors secreted by immune cells and fibroblasts. The function of these factors in disease development can be modeled and evaluated in esophageal organoids. Here we provide an example of such an experiment by treating normal esophageal organoids with interleukin 13 (IL-13) to model reactive changes induced in esophageal epithelium by eosinophils; however, any bioactive compounds (cytokines, antibodies, small molecule inhibitors) can be utilized to model pathologic conditions and/or treatment strategies. Representative images of esophageal organoids treated with IL-13, as well as gene expression profiles of select EoE-relevant genes (Blanchard et al., 2007; Kasagi et al., 2019), can be found in FIGS. 35A-35B.
Additional Materials (see also Basic Protocol 1) • Interleukin 13 (IL-13; R&D Systems, cat. no. 213-ILB-005) • Reconstituted IL-13 (reconstitute lyophilized IL-13 to 100 μg/ml in PBS, aliquot, and store at −80° C.; avoid repeated freeze-thaw cycles) • Growing culture of esophageal organoids (see Basic Protocol 1) • 1. Remove spent medium. • 2. Dispense 500 μl KSFMC containing 10 ng/ml IL-13. • 3. Observe organoid growth under a phase-contrast microscope. • 4. Harvest organoids for histology and RNA isolation, as described in Basic Protocol 3. • 5. Evaluate changes in morphology and gene expression.

## O=c1[nH]cc(F)c(=O)[nH]1 [5FU, 5-Fluorouracil]
[1]
  Response of Aldh2*2 (Aldh2 mutant) tumor organoids to chemotherapy agent compared with Aldh2*1 (wild-type) tumor organoids: better than Aldh2*1

## O=C(NCc1ccc2c(c1)OCO2)c1c(Cl)cccc1Cl [Alda1]
[1]; 10 μM Alda-1 with cisplatin 80 μM, 3 days
  Effect on cisplatin-mediated cytotoxicity in Aldh2*2 tumor 3D organoids: cisplatin-mediated cytotoxicity was reversed

## N.N.[Cl][Pt][Cl] [Cisplatin]
EAC PDO
  IC50: 7.1 µM
[1]
  Response of Aldh2*2 (Aldh2 mutant) tumor organoids to chemotherapy agent compared with Aldh2*1 (wild-type) tumor organoids: better than Aldh2*1

## CC(=O)O[C@H]1C(=O)[C@@]2(C)[C@H]([C@H](OC(=O)c3ccccc3)[C@]3(O)C[C@H](OC(=O)[C@H](O)[C@@H](NC(=O)c4ccccc4)c4ccccc4)C(C)=C1C3(C)C)[C@]1(OC(C)=O)CO[C@@H]1C[C@@H]2O [Paclitaxel]
EAC PDO; Homo sapiens
  IC50: 2.3 µM

## IL-13: eosinophilic esophagitis (EoE)-relevant cytokine, recombinant (R&D Systems)
Esophageal 3D organoids
  Reactive epithelial change (basal cell hyperplasia) in organoids: induces BCH-like changes; also recorded: Basal cell hyperplasia is evident

Source: US20220317115A1, “3D ORGANOIDS FOR PERSONALIZED ORAL CANCER THERAPY” (THE TRUSTEES OF COLUMBIA UNIVERSITY IN THE CITY OF NEW YOURK, priority 2019, published 2022)
